The results in this text go back to PubChem BioAssay (NCI).

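Assay format: 96-well plates, 48-hour exposure. The concentration for full growth arrest is given as TGI.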

Test systems include 786-0 renal; A498 renal; A549 NSCLC; EKVX NSCLC; HCC-2998 colon; HL-60(TB) leukemia; HS 578T breast; KM12 colon; M14 melanoma; MALME-3M melanoma; MCF7 breast; MDA-MB-435; MDA-N; OVCAR-4 ovarian; SF-295 CNS; SW-620 colon; TK-10 renal.
What all share (experiment): NCI tumour cell line growth inhibition, 48 h

As for `N#CC(C#N)=C(N)/C(C#N)=C/c1ccc(O)c(O)c1`, the TGI was more than 100 µM in the test on 786-0 renal; more than 100 µM with A498 renal; more than 100 µM in the test with A549 NSCLC; more than 100 µM with EKVX NSCLC; more than 100 µM in the test on HCC-2998 colon; more than 83.3 µM with HL-60(TB) leukemia. Besides, the TGI in the test on HS 578T breast, in the test on KM12 colon, in the test with M14 melanoma, in the test on MALME-3M melanoma, in the test with MCF7 breast and in the test on MDA-MB-435 was more than 100 µM each time. For the same compound, the TGI in the test with MDA-N, with OVCAR-4 ovarian, in the test on SF-295 CNS, in the test on SW-620 colon and in the test with TK-10 renal was more than 100 µM each time.

Take `OCCCN=C1N=C(Cl)/C(=C\c2ccccc2)N1`: the TGI in the test on 786-0 renal, in the test with A498 renal, in the test on A549 NSCLC, in the test on EKVX NSCLC, with HCC-2998 colon and in the test with HL-60(TB) leukemia was more than 100 µM throughout. In addition, the TGI in the test with HS 578T breast, with KM12 colon, in the test on M14 melanoma, with MALME-3M melanoma, with MCF7 breast and in the test with MDA-MB-435 was more than 100 µM in each case. Also, the TGI in the test with MDA-N, in the test with OVCAR-4 ovarian, in the test on SF-295 CNS, in the test on SW-620 colon and with TK-10 renal was more than 100 µM in each case.

On to `CNc1ccc(Cl)cc1C(=O)N1CCC[C@H]1CO`, for which the TGI with 786-0 renal, in the test with A498 renal, in the test with A549 NSCLC, in the test with EKVX NSCLC, in the test with HCC-2998 colon and in the test with HL-60(TB) leukemia was more than 100 µM each time. Besides, the TGI in the test with HS 578T breast, with KM12 colon, in the test with M14 melanoma, in the test with MALME-3M melanoma, in the test on MCF7 breast and in the test on MDA-MB-435 was more than 100 µM in each case. In addition, the TGI in the test with MDA-N, in the test on OVCAR-4 ovarian, with SF-295 CNS, in the test on SW-620 colon and in the test on TK-10 renal was more than 100 µM throughout.

On to `CCC12CN(C(=O)OC)C3C(Br)C1CCC(=O)C32` (stereo not drawn), for which the TGI in the test with 786-0 renal, in the test on A498 renal, in the test on A549 NSCLC, in the test on EKVX NSCLC, in the test on HCC-2998 colon and in the test on HL-60(TB) leukemia was more than 100 µM throughout. The TGI with HS 578T breast, in the test on KM12 colon, in the test on M14 melanoma, in the test on MALME-3M melanoma, in the test with MCF7 breast and with MDA-MB-435 was more than 100 µM each time. In addition, the TGI in the test on MDA-N, with OVCAR-4 ovarian, with SF-295 CNS, with SW-620 colon and in the test with TK-10 renal was more than 100 µM in each case.

Turning to `COc1ccc(N2C(=O)C3c4[nH]c5ccc(OC)cc5c4C4CCC(c5ccccc5)CC4C3C2=O)cc1` (stereo not drawn), the TGI was determined as 12.2 µM in the test on 786-0 renal; 37.4 µM in the test on A498 renal; 40.3 µM in the test with A549 NSCLC; 52 µM in the test with EKVX NSCLC; 49.5 µM in the test on HCC-2998 colon; 66 µM with HL-60(TB) leukemia. The TGI in the test on HS 578T breast was 12.7 µM; in the test on KM12 colon, more than 56.3 µM; with M14 melanoma, more than 56.8 µM; with MALME-3M melanoma it was 30.3 µM; with MCF7 breast it was more than 85.4 µM; in the test on MDA-MB-435, 68.4 µM. For the same compound, the TGI with MDA-N was more than 66.7 µM; in the test on OVCAR-4 ovarian, 19.3 µM; in the test with SF-295 CNS it was 24.2 µM; in the test on SW-620 colon, 25.1 µM; in the test on TK-10 renal, more than 57.7 µM.

With `N#CC(C#N)[C@@H]1CCC=C(Sc2ccccc2)[C@H]1Sc1ccccc1`, the TGI in the test on 786-0 renal was 5.64 µM; in the test with A498 renal it was 26.9 µM; in the test with A549 NSCLC, 12.7 µM; in the test on EKVX NSCLC, 15.4 µM; in the test with HCC-2998 colon, 6.79 µM; with HL-60(TB) leukemia, 18.7 µM. Moreover, the TGI with HS 578T breast stood at 26.6 µM; in the test on KM12 colon it was 12.2 µM; with M14 melanoma it was 4.95 µM; with MALME-3M melanoma, 13.6 µM; with MCF7 breast it was 14.1 µM; with MDA-MB-435, 4.53 µM. Also, the TGI was determined as 4.41 µM in the test with MDA-N, 17.2 µM in the test with OVCAR-4 ovarian, 19.9 µM with SF-295 CNS and 4.59 µM in the test on TK-10 renal.

In the case of `O=C(c1ccccc1)N1CCC(Nc2cccnc2)O1` (stereo not drawn), the TGI in the test with 786-0 renal, in the test with A498 renal, in the test with A549 NSCLC, in the test on EKVX NSCLC, in the test on HCC-2998 colon and in the test with HL-60(TB) leukemia was more than 100 µM in each case. The TGI in the test with HS 578T breast, in the test with KM12 colon, with M14 melanoma, in the test on MALME-3M melanoma, in the test with MCF7 breast and in the test on MDA-MB-435 was more than 100 µM in each case. Besides, the TGI in the test with MDA-N, in the test with SF-295 CNS, in the test on SW-620 colon and in the test on TK-10 renal was more than 100 µM throughout.

As for `O=C1c2ccccc2C(=O)c2c1sc1nc3ccccc3n21`, the TGI was 4.46 µM with 786-0 renal; 23.3 µM in the test with A498 renal; 25.1 µM in the test with A549 NSCLC; 4.6 µM with EKVX NSCLC; 3.79 µM with HCC-2998 colon; more than 100 µM in the test on HL-60(TB) leukemia. Further, the TGI in the test with HS 578T breast was found to be 0.0525 µM; in the test with KM12 colon, 3.91 µM; with M14 melanoma, 3.15 µM; with MALME-3M melanoma, 1.6 µM; in the test with MCF7 breast it was 3.84 µM; in the test with MDA-MB-435, 4.37 µM. For the same compound, the TGI stood at 3.49 µM in the test with MDA-N, 3.04 µM with SF-295 CNS and 12.7 µM in the test with TK-10 renal.

On to `COc1ccc(-c2n[nH]c3nc4ccccc4n3c2=O)cc1`, for which the TGI with 786-0 renal, with A498 renal, in the test with A549 NSCLC, with EKVX NSCLC, in the test with HCC-2998 colon and in the test on HL-60(TB) leukemia was more than 100 µM in each case. Also, the TGI with HS 578T breast, in the test with KM12 colon, with M14 melanoma, with MALME-3M melanoma, with MCF7 breast and in the test with MDA-MB-435 was more than 100 µM in each case. The TGI in the test on MDA-N, in the test with OVCAR-4 ovarian, in the test with SW-620 colon and in the test with TK-10 renal was more than 100 µM each time.
